pIC50: −log10 of the molar value.
System: SUM149PT spheroids with HUVEC/MSC, viability
Assay: Anticancer human tumor SUM149PT cell line growth inhibition [GQUAD];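 note: spheroids exposed to drugs for seven days before readout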;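 for viability, T/C: percent viability relative to DMSO vehicle control taken as 100%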
Conditions: for pIC50: curve of first compound; for viability, T/C: stronger effect = lower value
Method in brief: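 Tumor cells were grown as complex spheroids with HUVEC endothelial cells and mesenchymal stem cells as stroma. G-quadruplex stabilizers were combined with targeted agents over half-log dilutions from near the clinical Cmax, or from 10 microM.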

[1] = second compound 0.0316 µM, first compound 0.0316 µM
[2] = second compound 0.0316 µM, first compound 0.1 µM
[3] = second compound 0.0316 µM, first compound 0.316 µM
[4] = second compound 0.0316 µM, first compound 1 µM
[5] = second compound 0.0316 µM, first compound 3.16 µM
[6] = second compound 0.0316 µM, first compound 10 µM
[7] = second compound 0.1 µM, first compound 0.0316 µM
[8] = second compound 0.1 µM, first compound 0.1 µM
[9] = second compound 0.1 µM, first compound 0.316 µM
[10] = second compound 0.1 µM, first compound 1 µM
[11] = second compound 0.1 µM, first compound 3.16 µM
[12] = second compound 0.1 µM, first compound 10 µM
[13] = second compound 0.316 µM, first compound 0.0316 µM
[14] = second compound 0.316 µM, first compound 0.1 µM
[15] = second compound 0.316 µM, first compound 0.316 µM
[16] = second compound 0.316 µM, first compound 1 µM
[17] = second compound 0.316 µM, first compound 3.16 µM
[18] = second compound 0.316 µM, first compound 10 µM
[19] = second compound 1 µM, first compound 0.0316 µM
[20] = second compound 1 µM, first compound 0.1 µM
[21] = second compound 1 µM, first compound 0.316 µM
[22] = second compound 1 µM, first compound 1 µM
[23] = second compound 1 µM, first compound 3.16 µM
[24] = second compound 1 µM, first compound 10 µM
[25] = second compound 3.16 µM, first compound 0.0316 µM
[26] = second compound 3.16 µM, first compound 0.1 µM
[27] = second compound 3.16 µM, first compound 0.316 µM
[28] = second compound 3.16 µM, first compound 1 µM
[29] = second compound 3.16 µM, first compound 3.16 µM
[30] = second compound 3.16 µM, first compound 10 µM
[31] = second compound 10 µM, first compound 0.0316 µM
[32] = second compound 10 µM, first compound 0.1 µM
[33] = second compound 10 µM, first compound 0.316 µM
[34] = second compound 10 µM, first compound 1 µM
[35] = second compound 10 µM, first compound 3.16 µM
[36] = second compound 10 µM, first compound 10 µM

Structure (SMILES): CC(C)(O)C1CCC(Nc2ccc3ncc(-c4cccc(C(F)(F)F)c4)n3n2)CC1 (stereo unspecified) + Cc1[nH]c2ccc(F)cc2c1-c1nc2c3cccnc3c3ncccc3c2[nH]1
- pIC50 (second compound 0.0316 µM): 5.23
- pIC50 (second compound 0.1 µM): < 5.00
- pIC50 (second compound 0.316 µM): 5.42
- pIC50 (second compound 1 µM): 5.10
- pIC50 (second compound 3.16 µM): 5.63
- pIC50 (second compound 10 µM): 5.72
- viability, T/C [1]: 103%
- viability, T/C [2]: 96.5%
- viability, T/C [3]: 80.2%
- viability, T/C [4]: 63.9%
- viability, T/C [5]: 44.6%
- viability, T/C [6]: 53.3%
- viability, T/C [7]: 90.9%
- viability, T/C [8]: 90.4%
- viability, T/C [9]: 84.2%
- viability, T/C [10]: 67.4%
- viability, T/C [11]: 51%
- viability, T/C [12]: 55.9%
- viability, T/C [13]: 105%
- viability, T/C [14]: 97.7%
- viability, T/C [15]: 85.5%
- viability, T/C [16]: 68.8%
- viability, T/C [17]: 43.3%
- viability, T/C [18]: 51%
- viability, T/C [19]: 97.4%
- viability, T/C [20]: 96.4%
- viability, T/C [21]: 89.2%
- viability, T/C [22]: 68%
- viability, T/C [23]: 47.4%
- viability, T/C [24]: 52.9%
- viability, T/C [25]: 95.5%
- viability, T/C [26]: 81.5%
- viability, T/C [27]: 85.4%
- viability, T/C [28]: 70%
- viability, T/C [29]: 40%
- viability, T/C [30]: 46.3%
- viability, T/C [31]: 99%
- viability, T/C [32]: 87.5%
- viability, T/C [33]: 79.7%
- viability, T/C [34]: 59.9%
- viability, T/C [35]: 38.5%
- viability, T/C [36]: 43.1%

Structure (SMILES): CCCS(=O)(=O)Nc1ccc(F)c(C(=O)c2c[nH]c3ncc(-c4ccc(Cl)cc4)cc23)c1F + Cc1[nH]c2ccc(F)cc2c1-c1nc2c3cccnc3c3ncccc3c2[nH]1
- pIC50 (second compound 0.0316 µM): < 5.00
- pIC50 (second compound 0.1 µM): < 5.00
- pIC50 (second compound 0.316 µM): < 5.00
- pIC50 (second compound 1 µM): 5.04
- pIC50 (second compound 3.16 µM): 5.09
- pIC50 (second compound 10 µM): 5.14
- viability, T/C [1]: 107%
- viability, T/C [2]: 97.7%
- viability, T/C [3]: 109%
- viability, T/C [4]: 101%
- viability, T/C [5]: 74.7%
- viability, T/C [6]: 53.3%
- viability, T/C [7]: 102%
- viability, T/C [8]: 105%
- viability, T/C [9]: 102%
- viability, T/C [10]: 99.8%
- viability, T/C [11]: 82.6%
- viability, T/C [12]: 54.9%
- viability, T/C [13]: 110%
- viability, T/C [14]: 104%
- viability, T/C [15]: 105%
- viability, T/C [16]: 102%
- viability, T/C [17]: 78.9%
- viability, T/C [18]: 51.2%
- viability, T/C [19]: 103%
- viability, T/C [20]: 107%
- viability, T/C [21]: 105%
- viability, T/C [22]: 105%
- viability, T/C [23]: 79.6%
- viability, T/C [24]: 47.3%
- viability, T/C [25]: 98.3%
- viability, T/C [26]: 92.7%
- viability, T/C [27]: 102%
- viability, T/C [28]: 109%
- viability, T/C [29]: 71.3%
- viability, T/C [30]: 45.6%
- viability, T/C [31]: 98.1%
- viability, T/C [32]: 104%
- viability, T/C [33]: 102%
- viability, T/C [34]: 105%
- viability, T/C [35]: 74.6%
- viability, T/C [36]: 40.4%

Structure (SMILES): COc1ncnc(C2CC2)c1-c1ncc2cnn(Cc3ccc(-c4nc(C(F)(F)F)cn4C(C)C)cc3)c2n1 + Cc1[nH]c2ccc(F)cc2c1-c1nc2c3cccnc3c3ncccc3c2[nH]1
- pIC50 (second compound 0.0316 µM): < 5.00
- pIC50 (second compound 0.1 µM): < 5.00
- pIC50 (second compound 0.316 µM): < 5.00
- pIC50 (second compound 1 µM): < 5.00
- pIC50 (second compound 3.16 µM): < 5.00
- pIC50 (second compound 10 µM): < 5.00
- viability, T/C [1]: 106%
- viability, T/C [2]: 87.2%
- viability, T/C [3]: 92.7%
- viability, T/C [4]: 92.4%
- viability, T/C [5]: 91.6%
- viability, T/C [6]: 95.4%
- viability, T/C [7]: 103%
- viability, T/C [8]: 104%
- viability, T/C [9]: 87.2%
- viability, T/C [10]: 90.1%
- viability, T/C [11]: 91.2%
- viability, T/C [12]: 94.3%
- viability, T/C [13]: 97.4%
- viability, T/C [14]: 97.6%
- viability, T/C [15]: 68.9%
- viability, T/C [16]: 93%
- viability, T/C [17]: 97.8%
- viability, T/C [18]: 94.6%
- viability, T/C [19]: 98.1%
- viability, T/C [20]: 98.1%
- viability, T/C [21]: 92.3%
- viability, T/C [22]: 92.2%
- viability, T/C [23]: 90.1%
- viability, T/C [24]: 95.3%
- viability, T/C [25]: 97.4%
- viability, T/C [26]: 89.6%
- viability, T/C [27]: 86.1%
- viability, T/C [28]: 82.3%
- viability, T/C [29]: 89.4%
- viability, T/C [30]: 89.2%
- viability, T/C [31]: 91.8%
- viability, T/C [32]: 91.4%
- viability, T/C [33]: 85.4%
- viability, T/C [34]: 83.7%
- viability, T/C [35]: 90.8%
- viability, T/C [36]: 92.5%

From PubChem BioAssay AID2060484 (Molecular Pharmacology Branch, DTP, NCI, 2025)
